# Reference: patent publication US11696924B2, “Combination therapy using PDK1 and PI3K inhibitors” (MEMORIAL SLOAN-KETTERING CANCER CENTER, priority 2015, dated 2023)
# Tested on: pNDRG1 (T346)
# Test: Western blot of NDRG1 phosphorylation (T346)
# Type: cell-based
# Details: 4 h
# Method: A) SGK1 mRNA levels in breast cancer cell lines sensitive or resistant to BYL719 (n=27). B) SGK1 mRNA levels in PIK3CA-mutant breast cancer cell lines sensitive or resistant to BYL719. C) Western blot of SGK1, SGK2, SGK3 and phosphorylated NDRG1 in a panel of PIK3CA—mutant breast cancer cell lines sensitive or resistant to BYL719. D) Western blot for NDRG1 and phosphorylated NDRG1 (T346) in BYL719-sensitive and -resistant breast cancer cell lines treated with BYL719 (1 μM) for 4 h. […] P values are calculated using Student's t-test. Error bars are ±SEM.
# A) Dose-response curves from MDA-MB-361 cells transduced with pLenti7.3-LacZ or pLenti7.3-SGK1 (Δ60, S422D) treated with increasing concentrations of BYL719 for 6 days. B) Western blot analysis of LacZ and SGK1 MDA-MB-361 cells treated with BYL719 (1 μM) for 4 h. […] The DFG motif amino acids are indicated (D240, F241, G242). […] Hydrogen bonds are shown as dotted lines. […] L) IHC analysis of tumors from K collected at the end of the experiment. M) Top panel: growth curves of HCC1954 cells stably expressing doxycycline-inducible control (REN) or SGK1 knockdown treated with increasing concentrations of BYL719 for 6 days. Bottom panel: Western blot analysis of GFP-sorted control (REN) and SGK1 shRNA cells treated with BYL719 (1 μM) for 4 h. P values are calculated using Student's t-test. Error bars are ±SEM.
# Then, membranes were probed using specific antibodies.
smiles,measurement,setting,value
Cc1nc(NC(=O)N2CCC[C@H]2C(N)=O)sc1-c1ccnc(C(C)(C)C(F)(F)F)c1 [BYL719],NDRG1 phosphorylation (T346),BYL719-resistant cell lines,maintain NDRG1 phosphorylation
same,NDRG1 phosphorylation (T346),"BYL719-sensitive cell lines, 1 μM",decreased NDRG1 phosphorylation at T346
